Measured values reported in patent US11390625B2, “Aryl-phosphorus-oxygen compound as EGFR kinase inhibitor” (Chia Tai Tianqing Pharmaceutical Group Co., Ltd., priority 2017, dated 2022).

Experiments:
A431 cells (EGFR WT) = assay: Cell antiproliferation experiment (1), A431 cells, CellTiter Glo; type: cell-based; conditions: Homo sapiens, A-431, 72 h, read-out: anti-proliferation effect on cells A431 EGFR WT IC50
Method: 1) Cell Culture and Passage
(1) A431 medium: 88% DMEM+10% fetal bovine serum+1% L-glutamine+1% double-antibody
(2) A431 cells were isolated and passaged every 3-4 days, wherein the number of the cells for 3-day passage was 5e6 cells per T75 culture flask, and the number of the cells for 4-day passage was 3e6 cells per T75 culture flask.
2) Day 1: Preparation of Cell Plate
(1) Phosphate buffer, trypsin, and a culture medium were placed in a water bath at 37° C. to preheat.
(2) The original medium was removed from the cell culture flask and washed once with 6 mL of PBS.
(3) 5 mL of phosphate buffer was pipetted into the culture flask to rinse the cells (passage 17), and then the liquid was discarded.
(4) The cell culture flask was added with 3.5 mL of trypsin, and shaken gently, trypsin was removed after fully contact with the cells, and then the culture flask was placed in an incubator containing 5% CO2 at 37° C. for about 1 minute;
(5) The cells were resuspended in 10 mL cell culture medium, and about 0.6 mL of cell suspension was take out for counting (ViCell XR);
(6) The cell suspension was diluted with the medium to the cell density of 5e4 cells per ml, which was required for plating (cell concentration: 2500 cells per well);
(7) 100 μL of phosphate buffer solution was added to each well around the cell plate, while 50 μL of the cell suspension was added to other wells, and the plate was incubated overnight in a incubator containing 5% CO2 at 37° C.
(1) 9 μL of the compound (concentration: 1 mM) was added into a shallow well plate for Echo.
(2) The shallow well plate was centrifuged at 1000 rpm for 10 s and the cell plate was removed from the incubator.
(3) According to the layout of the microplate, the compounds was diluted with a three-fold concentration gradient using Echo, each compound was diluted to 10 concentration gradients and 250 nL of the diluted compounds was respectively added to the cell plate, and then the cell plate was returned to the incubator and further incubated for 3 days.
4) Day 5: Adding CTG and Reading the Plate
(1) After incubation for 72 h, 25 μL of CellTiter Glo was added to each well of the cell plate, followed by shaking the plate for 10 min in the dark.
(2) The plate was read on Envision.
Data analysis: By computer fitting, the corresponding concentration of the compound at 50% inhibition rate was read as the IC50 of the compound for inhibiting cell activity.

[1] = test system: Ba/F3 (EGFR Δ19del/T790M/C797S) cells; assay: Anti-proliferation experiment on cells (2), Ba/F3 (EGFR Δ19del/T790M/C797S); type: cell-based; conditions: Ba/F3 EGFR, 72 h; Ba/F3 cells, 3 days; read-out: anti-proliferation effect on cells Ba/F3(Δ19del/T790M/C797S) IC50
Method: The compounds ware transferred to a 384-well plate, with 125 nL of compound per well. […] After 3 days, 25 μL of detection reagent was added. The plate was incubated at room temperature for 10 minutes and then read with Envision.

[2] = test system: pEGFR Ba/F3 (EGFR Δ19del/T790M/C797S) cells; assay: Cell phosphorylation inhibition experiment, pEGFR Ba/F3 (EGFR Δ19del/T790M/C797S); type: cell-based; conditions: Ba/F3 EGFR; Ba/F3 cells, EGF stimulated; read-out: Effect on cellular EGFR phosphorylation Ba/F3(Δ19del/T790M/C797S) IC50
Method: The test compounds and reference compounds were diluted with 100% DMSO to 10 mM or 1 mM, and then a gradient dilution was performed by using Echo, 150 nL per well, with a three-fold concentration gradient and a ten-point dose response curve. The final concentration of the compounds was 100 μM or 10 μM. The suspension cells was centrifuged at 1000 rp for 5 minutes, suspend in Hanks' balanced salt solution, and added to a 384-well plate containing the compounds at 10 L/120K/well (the cell density of 1.2×10^7), followed by centrifugation at 1200 rpm for 30 s and incubation at 37° C. for 30 min. 5 μL of EGF (which has been diluted with 0.1% BSA Hanks' balanced salt solution) was added to each well, in which the final concentration of EGF was 1 μM. The plate was centrifuged at 1200 rpm for 30 s and incubated at 37° C. for 20 min. 5 μL of 4× lysis buffer containing blocking solution was added to each well, and then the plate was centrifuged at 1200 rpm for 30 s, and incubated at 37° C. for 30 min.

[3] = Plasma, tumor and lung exposure in mice of the Ba/F3 CDX efficacy experiment; type: in vivo; conditions: mouse, 15.0 mg/kg/day oral
Method: On Day 14 after administration to the groups for the efficacy experiment, the plasma was collected from the mice by submandibular blood collection before last administration and 2 hours after last administration, and the plasma samples were collected from the mice at 1 h, 4 h, 8 h and 24 h after administration. About 100 ul of blood was collected each time, placed in an anticoagulation tube, and centrifuged at 8000 rpm for 7 min, to collect plasma, which was stored at −80° C.

[4] = test system: PC9 (EGFR-C797S/T790M/del19); conditions: combination with panitumumab or cetuximab; Nature Communications 8:14768, 2017; cited from earlier work
[5] = biological target: EGFR (Δ19del/T790M/C797S) (Homo sapiens, UniProt P00533, C797S/T790M, form not given); assay: Enzyme activity experiment (1): EGFR (Δ19del/T790M/C797S) enzyme inhibition; type: biochemical; conditions: read-out: EGFR (Δ19del/T790M/C797S) IC50
Sequence of EGFR (Δ19del/T790M/C797S) (P00533 25-1210 T790M/C797S limits assumed, form open): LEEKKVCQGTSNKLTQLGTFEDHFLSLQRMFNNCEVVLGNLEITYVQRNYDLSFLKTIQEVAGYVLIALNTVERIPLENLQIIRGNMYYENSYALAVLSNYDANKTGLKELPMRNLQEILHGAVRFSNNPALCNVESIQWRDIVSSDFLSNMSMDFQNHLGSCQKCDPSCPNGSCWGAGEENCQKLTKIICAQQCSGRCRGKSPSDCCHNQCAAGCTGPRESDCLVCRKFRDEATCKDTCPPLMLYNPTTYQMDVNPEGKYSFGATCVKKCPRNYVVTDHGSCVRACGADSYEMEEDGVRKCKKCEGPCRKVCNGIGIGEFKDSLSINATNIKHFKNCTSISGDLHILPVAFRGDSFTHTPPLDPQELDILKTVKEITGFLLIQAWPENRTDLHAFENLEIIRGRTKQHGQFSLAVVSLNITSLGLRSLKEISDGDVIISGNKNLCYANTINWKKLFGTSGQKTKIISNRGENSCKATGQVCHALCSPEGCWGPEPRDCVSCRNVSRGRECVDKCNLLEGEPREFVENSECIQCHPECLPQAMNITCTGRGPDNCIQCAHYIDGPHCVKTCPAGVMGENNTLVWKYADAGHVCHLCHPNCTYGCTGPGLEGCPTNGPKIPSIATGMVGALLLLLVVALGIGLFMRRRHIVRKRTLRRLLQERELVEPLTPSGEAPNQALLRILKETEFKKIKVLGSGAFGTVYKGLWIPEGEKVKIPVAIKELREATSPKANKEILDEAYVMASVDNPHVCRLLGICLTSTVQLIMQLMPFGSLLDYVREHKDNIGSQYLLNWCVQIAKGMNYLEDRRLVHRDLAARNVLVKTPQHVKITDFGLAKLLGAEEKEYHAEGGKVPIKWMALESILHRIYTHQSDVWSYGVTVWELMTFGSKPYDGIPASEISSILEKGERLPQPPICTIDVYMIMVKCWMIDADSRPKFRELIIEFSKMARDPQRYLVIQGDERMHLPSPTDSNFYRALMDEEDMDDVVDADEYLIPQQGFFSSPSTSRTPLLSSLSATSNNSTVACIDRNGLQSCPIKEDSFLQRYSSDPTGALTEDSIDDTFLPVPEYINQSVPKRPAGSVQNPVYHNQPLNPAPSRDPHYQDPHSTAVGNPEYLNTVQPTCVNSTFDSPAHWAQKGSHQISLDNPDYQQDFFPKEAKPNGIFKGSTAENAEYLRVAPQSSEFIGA
Method: 1) 10 μL of the compounds to be tested and reference compounds diluted to 10 mM were taken into an Echo LDV plate, which were diluted according to the compound profile with Echo.
1) 1×enzyme reaction buffer was prepared: 1× enzyme buffer, 5 mM MgCl2, 1 mM DTT (dithiothreitol), water.
2) A mixed solution of 10 nM enzyme (final concentration of 5 nM) and 2 μM substrate (final concentration of 1 μM) and a solution containing the substrate alone were prepared with the diluted enzyme reaction buffer.
3) 5 μL of the substrate was added into A1-H1, J24-P24 (the number of the well position), and 5 μL of the mixture of the enzyme and substrate was added into the remaining wells.
4) Centrifugation was performed at 1000 rpm at 23° C. for 30 s.
5) Incubation was performed at 23° C. for 15 min.
7) Centrifugation was performed at 1000 rpm at 23° C. for 30 s.
8) Incubation was performed at 23° C. for 60 min.
9) 10 μL of 250 nM TK Antibody-Crypate (a final concentration of 125 nM) and 1×D2 (a final concentration ½ time) prepared with Detection buffer were added.
10) Centrifugation was performed at 1000 rpm at 23° C. for 30 s.
11) Incubation was performed at 23° C. for 60 min.
12) The data was read with Envision, and the ratio was calculated to obtain the IC50 of the compound for inhibiting the enzyme activity.

[6] = test system: L858R/T790M/C797S mutations model; conditions: combined with EGFR monoclonal antibody such as cetuximab; Nature 534, 129-132, 2016; cited from earlier work

| Compound | IC50 (A431 cells (EGFR WT)) [nM] | IC50 [1] [nM] | IC50 [2] [nM] | IC50 [5] [nM] | also measured |
| --- | --- | --- | --- | --- | --- |
| COc1cc(N2CCC(N3CCN(C)CC3)CC2)ccc1Nc1ncc(Cl)c(Nc2ccccc2P(C)(C)=O)n1 [Brigatinib, reference compound] | – | – | – | – | AUC(0-t) ([3]; BALB/c nude, plasma): 32.8 µM·h; half-life ([3]; BALB/c nude, plasma): 5.57 h; concentration at 2 h ([3]; BALB/c nude, plasma, 2 h after administration): 5.18 µM; Lung, 2 h ([3]; 2 h after administration): 10217 nmol/kg; Tumor, 2 h ([3]; 2 h after administration): 5807 nmol/kg; antitumor efficacy [4]: good antitumor efficacy |
| COc1cc(N2CCC(N3CCN(C)CC3)CC2)ccc1Nc1ncc(Cl)c(Nc2ccc3sccc3c2P(C)(C)=O)n1 [Compound 3] | 3240 | 638 | 187 | – | – |
| COc1cc(N2CCC3(CCN(C)CC3)CC2)c(Cl)cc1Nc1ncc(Cl)c(Nc2ccc3ccccc3c2P(C)(C)=O)n1 [Compound 4] | 3750 | 556 | 278 | – | – |
| COc1cc(N2CCC(N3CCN(C)CC3)CC2)ccc1Nc1ncc(Cl)c(Nc2ccc3ccccc3c2P(C)(C)=O)n1 [Compound 6] | 997 | 361 | 187 | 2.54 | – |
| COc1cc(N2CCC3(CC2)CN(C)C3)c(C)cc1Nc1ncc(Cl)c(Nc2ccc3ccccc3c2P(C)(C)=O)n1 [Compound 9] | 282 | 149 | 149 | 0.485 | – |
| COc1cc(N2CCC3(CC2)CN(C)C3)ccc1Nc1ncc(Cl)c(Nc2ccc3ccccc3c2P(C)(C)=O)n1 [Compound 5] | 890 | 313 | 96 | 1.63 | – |
| COc1cc(N2CCC3(CC2)CN(C)C3)c(C)cc1Nc1ncc(Cl)c(Nc2ccc3sccc3c2P(C)(C)=O)n1 [Compound 2] | 811 | 178 | 68 | 0.613 | – |
| O=C(Nc1nccs1)C(c1cc(F)ccc1O)N1Cc2ccccc2C1=O (stereo not drawn) [EAI045] | – | – | – | – | tumor inhibition effect [6]: better tumor inhibition effect |

Further lines, with some results ahead:

| IC50 (A431 cells (EGFR WT)) [nM] | IC50 [1] [nM] | IC50 [2] [nM] | IC50 [5] [nM] | Compound | also measured |
| --- | --- | --- | --- | --- | --- |
| 1260 | 239 | 203 | – | COc1cc(N2CCC3(CC2)CN(C)C3)c(C)cc1Nc1ncc(Cl)c(Nc2ccc3cccnc3c2P(C)(C)=O)n1 [Compound 12] | – |
| 58 | 32.2 | 58 | – | COc1cc(N2CCC(N3CCN(C)CC3)CC2)c(C)cc1Nc1ncc(Cl)c(Nc2ccc3nccnc3c2P(C)(C)=O)n1 [Example 61] | – |
| 561 | 31 | 24 | – | CCc1cc(Nc2ncc(Br)c(Nc3ccc4nccnc4c3P(C)(C)=O)n2)c(OC)cc1N1CCC2(CC1)CN(C)C2 [Compound 40] | – |
| 168 | 45 | 25 | – | COc1cc(N2CCC3(CC2)CN(C)C3)c(C)cc1Nc1ncc(Br)c(Nc2ccc3nccnc3c2P(C)(C)=O)n1 [Compound 36] | – |
| 271 | 47.6 | 271 | – | COc1cc(N2CCC(N3CCN(C)CC3)CC2)ccc1Nc1ncc(Br)c(Nc2ccc3nccnc3c2P(C)(C)=O)n1 [Example 60] | – |
| > 10000 | 3620 | 1720 | 5.79 | COc1cc(N2CCC3(CC2)CN(C)C3)c(C)cc1Nc1ncc(Cl)c(Nc2ccc3cnn(C)c3c2P(C)(C)=O)n1 [Compound 13] | – |
| 357 | 56 | 94 | – | COc1cc(N2CCC3(CC2)CN(CCN(C)C)C3)c(C)cc1Nc1cc(Nc2ccc3nccnc3c2P(C)(C)=O)c(Br)cn1 [Compound 37] | – |
| 534 | 54.3 | 534 | – | COc1cc(N2CCC(N3CCN(C)CC3)CC2)ccc1Nc1ncc(Cl)c(Nc2ccc3nccnc3c2P(C)(C)=O)n1 [Example 59] | – |
